From patent US7635491B2, “Method for administering selenium for treating patients suffering from systemic inflammatory response syndrome (SIRS), and composition for implementing the treatment” (priority 1998, dated 2009)

Tested on: severe systemic inflammatory response syndrome (SIRS)
Assay: Treatment of intensive-care patients with severe SIRS / septic shock by continuous administration of sodium selenite (case reports)
Type: in vivo, human
Method: A patient, 75 kg, chronic alcoholic with no history of icteroascitic, hemorrhagic or encephalopathic compensation, was admitted to postoperative intensive care with generalized purulent peritonitis from colonic perforation during an attack of diverticular sigmoiditis.
His initial hemodynamics were maintained by perfusion. […] There was a moderate renal insufficiency. An adapted empirical antibiotic therapy was begun, and modified after 48 hours in view of the antiobiograms. At 24 hours severity indexes were IGS II 29, APACHE II 17 and SOFA score was 5. One day after the operation, the situation worsened rapidly with onset of a state of shock with lactic acidosis 5 μmol/l requiring administration of dopamine then rapidly noradrenaline up to 4 mg/h (0.9 μg/kg/min). There was a deterioration of respiratory state requiring increase of the FiO2 because of the onset of an acute adult respiratory distress syndrome (ARDS). As soon as the necessity of noradrenaline administration was recognized, a treatment with sodium selenite by continuous administration was begun at a dose of 4 mg of atomic selenium equivalent over the first 24 hours, followed by continuous administration of sodium selenite at a dose of 1 mg of atomic selenium equivalent for 10 days.
A patient, depressive, anorexic, 51 kg and 1.75 m tall, was admitted on a tentative diagnosis of drug-induced suicide with ingestion of a large amount of analgesics and sedatives. The diagnosis was rapidly changed to generalized purulent peritonitis from a perforated gastric ulcer. They were transferred to postoperative intensive care. There was also a shock condition requiring perfusion and introduction of catechol amines as noradrenaline and dolbutamine; lactic acidosis at 6 μmol/l. Antibacterial and antifungal antibiotic therapy was performed. Diuresis was maintained under diuretics. One hour after the start of noradrenaline administration, a treatment with sodium selenite by continuous administration was begun at a dose of 4 mg of atomic selenium equivalent over the first 24 hours, followed by continuous administration of sodium selenite at a dose of 1 mg of atomic selenium equivalent for 10 days. At 24 hours the severity indexes were IGS II 44, APACHE II 35. The SOFA score was 8.
A patient, presenting major alcohol-tobacco addiction (more than 1 liter of wine per day, 2 packets of cigarettes per day), chronic BPCO respiratory insufficiency, stage 2 arteritis of the lower limbs and deterioration in general health for several months with a productive cough, was transferred to intensive care after a short stay in general medicine. At admission there was a respiratory distress requiring emergency intubation-ventilation. Blood gases confirmed major respiratory acidosis. The patient was feverish. There was a hyperleucocytosis of 24 000 leucocytes of which 88% were polymorphonuclear cells. Blood pressure was stable under perfusion, however there were blotches on the knees. There were no coagulation problems nor renal insufficiency. At 24 hours IGS II was 41, APACHE II 26, and SOFA score 8. Lung samples taken by protected telescopic brush and brochoalveolar washing confirmed the diagnosis of community-acquired pneumonia: 47% of cells infected, Haemophilus influenza β-lactamase negative and wild-type streptococcal anginosis.
The immediate development was marked by a rapid deterioration of respiratory state with necessity of ventilation at FiO2 100%, PEP 8. In addition, very substantial perfusion was necessary with measurement of pressure by right catheterization. Dopamine had to be administered at 10 μg/kg/min. After 8 hours dopamine administration, a treatment with sodium selenite by continuous administration was begun at a dose of 4 mg of atomic selenium equivalent over the first 24 hours, followed by continuous administration of sodium selenite at a dose of 1 mg of atomic selenium equivalent for 10 days. […]

SMILES: O=[Se](O)O [sodium selenite, Sodium selenite [Na2O3Se]]
- left intensive care, time after the operation (Example 1): 10 days
- platelet level (Example 1, no disseminated intravascular coagulation): higher than 150 000 platelets/mm^3
- extubation, time after the operation (Example 2): 20 days
- platelet level (Example 2): 50%
- time to regression of the shock condition (Example 2: patient, purulent peritonitis, shock, 4 mg atomic selenium equivalent over first 24 hours, then 1 mg for 10 days): 24 h
- hyperlactatemia, maximum (then reduced as from the second day) (Example 3): 10 µmol/L
- thrombopenia, platelets (Example 3, moderate CIVD): 7500 platelets/mm^3
